# Results reported in PMC10810133, “Exploring the inhibitory potential of in silico-designed small peptides on Helicobacter pylori Hp0231 (DsbK), a periplasmic oxidoreductase involved in disulfide bond formation” (Frontiers in Molecular Biosciences, 2024).
# Entries after “also recorded” stand apart in the source; their conditions may differ. Where two headings read alike, the source gives them in different places. Residues, ends and D or L forms follow the SMILES beside them.
# Experiments:
# Hp0231 [1] = target: T1, Hp0231 (Helicobacter pylori, UniProt O25017); assay: Peptide inhibitory activity assay (time-resolved Eu3+ fluorescence peptide oxidation assay); type: biochemical; settings: 160 nM Hp0231, […] GSSG, 8 µM substrate S1 or S2, pH 5.5
# T1 sequence (O25017 entry or part of it): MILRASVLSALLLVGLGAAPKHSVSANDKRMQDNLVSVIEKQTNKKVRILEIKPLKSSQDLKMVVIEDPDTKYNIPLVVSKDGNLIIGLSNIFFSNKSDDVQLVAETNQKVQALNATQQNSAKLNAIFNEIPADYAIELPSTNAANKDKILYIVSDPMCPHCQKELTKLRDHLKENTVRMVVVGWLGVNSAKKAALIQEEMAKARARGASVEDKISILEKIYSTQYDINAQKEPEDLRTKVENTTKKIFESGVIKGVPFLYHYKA
# Protocol: The peptide oxidation assay was performed as described previously ([Vivian et al., 2009]; [Kurth et al., 2014]) with slight modification. Briefly, peptide substrates (S1—[…]; S2—[…]) with DOTA (1,4,7,10-tetraazacycclododecane-1,4,7,10-tetraacetic acid) coupled at the N-terminus, and a methylcoumarin amide coupled to the Ɛ-amino group of the C-terminal lysine, were custom synthesized by Eurogentec. The lyophilized peptides were resuspended in 100 mM imidazole (pH 6.0) to a concentration of 2 mM. Freshly prepared 100 mM europium trifluoromethanesulfonate (Eu^3+) solution was added to each peptide at a final concentration of 4 mM and the mixtures incubated for 5 min at room temperature to permit Eu^3+ chelation. Eu^3+ was complexed with DOTA in order to facilitate observation of the oxidation rate of cysteine residues in the substrate peptide, leading to the formation of a disulfide bond. This process brings the methylcoumarin antenna into close contact with the DOTA-Eu^3+ fluorophore, resulting in an increase in Eu^3+ fluorescence. Thus, fluorescence could be used to monitor the capacity of Hp0231 or Hp0231APHA to catalyze disulfide bond formation.
# Assays were conducted using an Infinite® M Nano + plate reader (Tecan) with an excitation wavelength of 340 nm and emission wavelength 615 nm. There was a 150 µs delay before reading and time-resolved fluorescence was measured over a period of 100 µs. The assay was performed in white 384-well plates (Perkin Elmer, OptiPlate-384). Each well contained 50 μL, which included the reaction buffer consisting of 50 mM MES, 50 mM NaCl, 2 mM EDTA (pH 5.5), 160 nM protein (either Hp0231 or Hp0231APHA), 1.6 mM GSSG (oxidized glutathione) and 8 µM substrate peptide which was added last to initiate the reaction. Three control reactions were included in each experiment: 1) reaction buffer, GSSG and a protein; 2) reaction buffer and substrate peptide; 3) reaction buffer, substrate peptide and GSSG. Measurements were made for three replicate samples and mean values are presented, with the standard error of the mean indicated by error bars. […]
# Hp0231APHA = target: T2, Hp0231APHA (Helicobacter pylori, UniProt O25017, C159A/C162A); assay: Microscale thermophoresis (MST) binding of inhibitory peptides to Hp0231APHA (inactive form)
# T2 sequence (O25017 1-265 C159A/C162A): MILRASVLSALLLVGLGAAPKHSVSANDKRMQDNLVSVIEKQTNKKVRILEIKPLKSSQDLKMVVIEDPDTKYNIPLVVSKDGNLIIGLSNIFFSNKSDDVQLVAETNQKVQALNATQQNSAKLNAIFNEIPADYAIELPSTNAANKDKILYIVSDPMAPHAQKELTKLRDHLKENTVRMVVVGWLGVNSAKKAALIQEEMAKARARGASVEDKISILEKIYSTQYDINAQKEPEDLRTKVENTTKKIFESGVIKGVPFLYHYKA
# Hp0231 [2] = target: T1, Hp0231; assay: biochemical
# Protocol: 2.3.7 Assessment of interactions between inhibitory peptides and Hp0231 or Hp0231APHA using microscale thermophoresis
# The purified Hp0231 and Hp0231APHA proteins were suspended in HEPES buffer (20 mM HEPES, 150 mM NaCl, 0.05% (v/v) TWEEN 20, pH 7.4). Protein concentrations were determined by absorption measurements at 280 nm, using the extinction coefficients ε280 = 16,055 M^−1 × cm^−1 for Hp0231 and ε280 = 15,930 M^−1 × cm^−1 for Hp0231APHA, calculated using Quest Calculate™ Protein Concentration Calculator (AAT BioQuest, https://www.aatbio.com/tools/calculate-protein-concentration). After adjusting their concentrations to 200 nM, Hp0231 and Hp0231APHA were labeled using a Monolith His-Tag Labeling Kit RED-tris-NTA (NanoTemper Technologies) according to the manufacturer’s instructions. […] To assess binding interactions between the Hp0231/Hp0231APHA proteins and the inhibitory peptides, MST measurements were performed using a NanoTemper ® Monolith NT.115 instrument (NanoTemper Technologies). Samples were prepared according to the manufacturer’s instructions and loaded in Premium coated capillaries (NanoTemper Technologies). Measurements were performed using MO.Control v1.6.1 (NanoTemper Technologies) software. Medium and high MST power were applied at 25°C. The results were analyzed using MO.Affinity Analysis v2.3 (NanoTemper Technologies) and Origin 2019 (OriginLab Corporation). At least three independent measurements were performed for each sample.
# E. coli DsbA = test system: E. coli DsbA; design: method as in Duprez et al. (2015); settings: ref Duprez et al. (2015); cited from earlier work
# [3] = MST, pseudo-titration mode, 25°C, Hp0231, mean of three experiments ± S.D., NB = not binding
# [4] = MST, pseudo-titration mode, 25°C, Hp0231APHA (CPHC to APHA, inactive), NB = not binding
# [5] = MST, pseudo-titration mode, 25°C, Hp0231APHA (CPHC to APHA, inactive), NB = not binding, read-out: K D
Compound,Inhibition of Hp0231-catalyzed oxidation of substrate peptides (Eu3+ fluorescence increase) (Hp0231 [1]; inhibitory peptide 0.75 mM),Kd (Hp0231APHA) [µM],K D (Hp0231 [2]; [3]),Inhibition of Hp0231-catalyzed oxidation of substrate peptides (Eu3+ fluorescence increase) (Hp0231 [1]; inhibitory peptide 1 mM),K D (Hp0231APHA; [4]),Kd (Hp0231APHA; [5]) [µM],Kd (Hp0231 [2]; [3]) [µM],Kd (Hp0231 [2]) [µM],Kd (E. coli DsbA) [µM]
CC(=O)N[C@@H](Cc1c[nH]cn1)C(=O)N[C@@H](CCC(N)=O)C(=O)N[C@@H](CO)C(=O)N[C@@H](CS)C(=O)N[C@@H](C)C(=O)N[C@@H](CS)C(=O)N[C@@H](CCC(=O)O)C(=O)N[C@@H](CC(C)C)C(N)=O [WAW8] (Ac-HQSCACEL-NH2),the reaction rate was significantly reduced,1.3 ± 0.2,two binding affinities (low and high),–,–,–,–,–,–
Ac-HQSALYEL-NH2 [WAW6],–,–,–,did not yield a significant alteration in the fluorescence intensity,did not bind; also recorded: no binding,> 1000,> 1000,–,–
Ac-HQSCAYEL-NH2 [WAW7],–,–,low affinity,inhibition of the fluorescence intensity increase,no interaction,> 1000,–,112 ± 21,–
PSPFATCDF,–,–,–,–,–,–,–,–,4
